The source of these data is US8513248B2, “5,6,7,8-tetrahydroimidazo[1,2-A]pyrazine derivatives as P2X7 modulators” (Glaxo Group Limited, priority 2009, dated 2013).

SMILES strings stand for the structures. Structures can show the parent of a compound that is named as a salt. A value given as a limit tells only on which side of the number the result lay.

The target in the first assay is T1, human recombinant P2X7 receptors (Homo sapiens, UniProt Q99572).
T1 construct: expressed in transfected cells
T1 sequence (Q99572 1-595): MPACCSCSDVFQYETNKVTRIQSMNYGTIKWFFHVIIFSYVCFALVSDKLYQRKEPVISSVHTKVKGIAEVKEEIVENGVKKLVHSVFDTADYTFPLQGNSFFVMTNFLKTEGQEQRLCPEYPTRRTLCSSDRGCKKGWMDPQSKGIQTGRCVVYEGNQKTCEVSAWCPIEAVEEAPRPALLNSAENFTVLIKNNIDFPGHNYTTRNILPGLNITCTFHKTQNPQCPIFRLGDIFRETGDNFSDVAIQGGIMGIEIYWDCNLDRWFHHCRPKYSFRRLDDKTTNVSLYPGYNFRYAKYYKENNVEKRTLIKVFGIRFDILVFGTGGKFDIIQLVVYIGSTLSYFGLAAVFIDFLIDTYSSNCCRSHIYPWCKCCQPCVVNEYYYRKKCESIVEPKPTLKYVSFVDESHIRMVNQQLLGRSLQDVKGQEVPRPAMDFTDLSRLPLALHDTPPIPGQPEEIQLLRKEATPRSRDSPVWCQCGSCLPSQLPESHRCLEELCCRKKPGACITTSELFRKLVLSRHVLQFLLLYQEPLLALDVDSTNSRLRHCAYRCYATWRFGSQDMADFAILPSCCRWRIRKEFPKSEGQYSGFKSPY
Briefly: Ethidium Accumulation Assay 2. Type of assay: cell-based. The note with it: HEK293 cells stably expressing human recombinant P2X7; ATP solution with ethidium bromide; 16 min incubation; read-out: Assay 2 (antagonist pIC50 for blocking ATP responses, ethidium accumulation) (converted). The method, then:
Human Embryonic Kidney (HEK) 293 cells, stably expressing human recombinant P2X7 receptors, were grown in poly-D-lysine pretreated 96 well plates for 24 hours at 37° C.
The cells were washed with assay buffer (100 μL), before addition of 25 μL of assay buffer and then 25 ul of assay buffer containing the putative P2X7 receptor antagonist compound. The cells were then incubated at room temperature (19-21° C.) for 30 min before addition of ATP solution (50 μM). […] Antagonist pIC50 values for blocking ATP responses were determined using iterative curve fitting techniques.
`O=C(c1cccc(C(F)(F)F)c1Cl)N1CCn2ccnc2C1` [Example 1, 7-{[2-Chloro-3-(trifluoromethyl)phenyl]carbonyl}-5,6,7,8-tetrahydroimidazo[1,2-a]pyrazine]: the IC50 was < 0.1 µM. Same read-out and setting: for `O=C(c1cccc(C(F)(F)F)c1Cl)N1CCn2cc(C(F)(F)F)nc2C1` [Example 2, 7-{[2-Chloro-3-(trifluoromethyl)phenyl]carbonyl}-2-(trifluoromethyl)-5,6,7,8-tetrahydroimidazo[1,2-a]pyrazine] the value was < 0.1 µM; for `Cc1cnc2n1CCN(C(=O)c1cccc(C(F)(F)F)c1Cl)C2` [Example 27, 7-{[2-Chloro-3-(trifluoromethyl)phenyl]carbonyl}-3-methyl-5,6,7,8-tetrahydroimidazo[1,2-a]pyrazine hydrochloride], < 0.1 µM.

In the next assay the target is T1, human recombinant P2X7 receptors. Briefly: Ethidium Accumulation Assay 1. Type of assay: cell-based. The note with it: HEK293 cells stably expressing human recombinant P2X7; 1 mM ATP; ethidium 100 μM; read-out: Assay 1 (antagonist pIC50 for blocking ATP responses, ethidium accumulation) (converted). The method, then: Studies were performed using NaCl assay buffer of the following composition: 140 mM NaCl, 10 mM HEPES [4-(2-hydroxyethyl)-1-piperazine-1-ethanesulfonic acid], 5 mM N-methyl-D-glucamine, 5.6 mM KCl, 10 mM D-glucose, 0.5 mM CaCl2 (pH 7.4).
Human Embryonic Kidney (HEK) 293 cells, stably expressing human recombinant P2X7 receptors, were grown in poly-D-lysine pretreated 96 well plates for 18-24 hours. […] The cells were washed twice with 350 μl of the assay buffer, before addition of 50 μl of the assay buffer containing the putative P2X7 receptor antagonist compound. (A small amount of dimethyl sulfoxide, for initially dissolving the compound, is optionally used and present in this […] test compound sample.) The cells were then incubated at room temperature (19-21° C.) for 30 min before addition of ATP and ethidium (100 μM final assay concentration). The ATP concentration was chosen to be close to the EC80 for the receptor type and was 1 mM for studies on the human P2X7 receptor. Incubations were continued for 8 or 16 min and were terminated by addition of 25 μl of 1.3M sucrose containing 4 mM of the P2X7 receptor antagonist Reactive Black 5 (Aldrich). […] Antagonist pIC50 values for blocking ATP responses were determined using iterative curve fitting techniques.
As to `O=C(c1cccc(C(F)(F)F)c1Cl)N1CCn2ccnc2C1` [Example 1, 7-{[2-Chloro-3-(trifluoromethyl)phenyl]carbonyl}-5,6,7,8-tetrahydroimidazo[1,2-a]pyrazine], the IC50 is < 0.1 µM. Same read-out and setting: for `O=C(c1cccc(C(F)(F)F)c1Cl)N1CCn2cc(C(F)(F)F)nc2C1` [Example 2, 7-{[2-Chloro-3-(trifluoromethyl)phenyl]carbonyl}-2-(trifluoromethyl)-5,6,7,8-tetrahydroimidazo[1,2-a]pyrazine] the value was < 0.1 µM.

Turning to `Cc1cnc2n1CCN(C(=O)c1cccc(C(F)(F)F)c1Cl)C2` [Example 27, 7-{[2-Chloro-3-(trifluoromethyl)phenyl]carbonyl}-3-methyl-5,6,7,8-tetrahydroimidazo[1,2-a]pyrazine hydrochloride], the IC50 is < 0.1 µM. Same read-out and setting: for `O=C(c1cccc(C(F)(F)F)c1Cl)N1CCn2c(nc(Cl)c2Br)C1` [Example 33, 3-Bromo-2-chloro-7-{[2-chloro-3-(trifluoromethyl)phenyl]carbonyl}-5,6,7,8-tetrahydroimidazo[1,2-a]pyrazine] the value was < 0.01 µM. Still for that read-out and setting: for `O=C(c1cccc(C(F)(F)F)c1Cl)N1CCn2c(nc(Br)c2-c2ccc(F)cc2)C1` [Example 34, 2-Bromo-7-{[2-chloro-3-(trifluoromethyl)phenyl]carbonyl}-3-(4-fluorophenyl)-5,6,7,8-tetrahydroimidazo[1,2-a]pyrazine] the value was < 0.1 µM; for `O=C(c1cccc(C(F)(F)F)c1Cl)N1CCn2c(nc(C(F)(F)F)c2-c2ccc(F)cc2)C1` [Example 35, 7-{[2-chloro-3-(trifluoromethyl)phenyl]carbonyl}-3-(4-fluorophenyl)-2-(trifluoromethyl)-5,6,7,8-tetrahydroimidazo[1,2-a]pyrazine], < 0.1 µM.

Take `O=C(c1ccc(Cl)cc1Cl)N1CCn2c(nc(C(F)(F)F)c2-c2ccc(F)cc2)C1` [Example 36, 7-[(2,4-dichlorophenyl)carbonyl]-3-(4-fluorophenyl)-2-(trifluoromethyl)-5,6,7,8-tetrahydroimidazo[1,2-a]pyrazine]: the IC50 was < 0.501 µM. In the case of `O=C(c1ccc(F)cc1Cl)N1CCn2c(-c3cnccn3)cnc2C1` [Example 37, 7-[(2-chloro-4-fluorophenyl)carbonyl]-3-(2-pyrazinyl)-5,6,7,8-tetrahydroimidazo[1,2-a]pyrazine], the IC50 was < 0.01 µM.

With `O=C(c1cccc(C(F)(F)F)c1Cl)N1CCn2c(-c3cnccn3)cnc2C1` [Example 38, 7-{[2-chloro-3-(trifluoromethyl)phenyl]carbonyl}-3-(2-pyrazinyl)-5,6,7,8-tetrahydroimidazo[1,2-a]pyrazine], the IC50 is < 0.01 µM. On the same count and under the same terms, for `O=C(c1cccc(C(F)(F)F)c1Cl)N1CCn2c(-c3nccs3)cnc2C1` [Example 39, 7-{[2-chloro-3-(trifluoromethyl)phenyl]carbonyl}-3-(1,3-thiazol-2-yl)-5,6,7,8-tetrahydroimidazo[1,2-a]pyrazine] the value was < 0.01 µM; for `O=C(c1cccc(C(F)(F)F)c1Cl)N1CCn2c(-c3ncccn3)cnc2C1` [Example 41, 7-{[2-chloro-3-(trifluoromethyl)phenyl]carbonyl}-3-(2-pyrimidinyl)-5,6,7,8-tetrahydroimidazo[1,2-a]pyrazine], < 0.01 µM. The same measure, in the same setting: for `O=C(c1cccc(C(F)(F)F)c1Cl)N1CCn2c(-c3cscn3)cnc2C1` [Example 42, 7-{[2-chloro-3-(trifluoromethyl)phenyl]carbonyl}-3-(1,3-thiazol-4-yl)-5,6,7,8-tetrahydroimidazo[1,2-a]pyrazine] the value was < 0.01 µM; for `O=C(c1cccc(C(F)(F)F)c1Cl)N1CCn2c(Cl)cnc2C1` [Example 43, 3-chloro-7-{[2-chloro-3-(trifluoromethyl)phenyl]carbonyl}-5,6,7,8-tetrahydroimidazo[1,2-a]pyrazine], < 0.1 µM; for `O=C(c1ccc(Cl)cc1Cl)N1CCn2c(Cl)cnc2C1` [Example 44, 3-chloro-7-[(2,4-dichlorophenyl)carbonyl]-5,6,7,8-tetrahydroimidazo[1,2-a]pyrazine], < 0.501 µM. Same read-out and setting: for `O=C(c1cccc(C(F)(F)F)c1Cl)N1CCn2c(nc(Cl)c2Cl)C1` [Example 45, 2,3-dichloro-7-{[2-chloro-3-(trifluoromethyl)phenyl]carbonyl}-5,6,7,8-tetrahydroimidazo[1,2-a]pyrazine] the value was < 0.01 µM.
